Measurements from patent publication US11407719B2, “Anti-inflammatory agents” (Resverlogix Corp., priority 2009, dated 2022).

Columns and labels:
hIL-6 mRNA = assay: Quantification of hIL-6 mRNA; assay type: cell-based, human; parameters: key: Active: an active compound is one that causes a ≥20% inhibition in IL-6 mRNA at a concentration less than or equal to 10 μM; settings: IL-6 mRNA by real-time PCR; differentiated U937 cells, 1 h pretreatment, lipopolysaccharide stimulation 3 h; concentration ≤10 μM
In short: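 U937 cells, differentiated for 3 days, were pretreated with compound for 1 h and then stimulated with E. coli LPS for 3 h at 37 °C. IL-6 mRNA was quantified by one-step qRT-PCR, with Ct normalized to an internal control, and fold induction was expressed relative to control.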

VCAM-1 mRNA = assay: Quantification of hVCAM mRNA; assay type: cell-based, human; parameters: key: Active: an active compound is one that causes a ≥20% inhibition in VCAM-1 mRNA at a concentration less than or equal to 10 μM; -1 mRNA at a concentration less than or equal to 10 μM; settings: VCAM-1 mRNA by real-time PCR; HUVECs, 1 h pretreatment, tumor necrosis factor-α stimulation 24 h; concentration ≤10 μM
In short: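 HUVECs were pretreated 1 h with compound, then stimulated with TNF-α and harvested 24 h later. Isolated mRNA went into one-step qRT-PCR. hVCAM Ct values were normalized to an internal control and expressed as fold induction relative to control.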

Row | melting point | Compound | Inhibition of IL-6 expression (hIL-6 mRNA) | Inhibition of VCAM-1 expression (VCAM-1 mRNA)
1 | 209 to 210 °C | Cc1cc(-c2nc3cc(Cl)cc(Cl)c3c(=O)[nH]2)cc(C)c1OCCN1CCCC1 [5,7-Dichloro-2-(3,5-dimethyl-4-(2-(pyrrolidin-1-yl)ethoxy)phenyl)quinazolin-4(3H)-one] | Active | Active
2 | 159 to 160 °C | COc1cc(OCCN2CCCC2)cc(-c2nc3cc(OC)cc(OC)c3c(=O)[nH]2)c1 [5,7-Dimethoxy-2-(3-methoxy-5-(2-(pyrrolidin-1-yl)ethoxy)phenyl)quinazolin-4(3H)-one] | Active | Active
3 | 230 to 231 °C | COc1cc(OC)c2c(=O)[nH]c(-c3ccc(OCCN4CCCC4)c(C)c3)nc2c1 [5,7-Dimethoxy-2-(3-methyl-4-(2-(pyrrolidin-1-yl)ethoxy)phenyl)quinazolin-4(3H)-one] | Active | Active
4 | 179 to 180 °C | Cc1cc(-c2nc3cccc(Cl)c3c(=O)[nH]2)cc(C)c1OCCN1CCCC1 [5-Chloro-2-(3,5-dimethyl-4-(2-(pyrrolidin-1-yl)ethoxy)phenyl)quinazolin-4(3H)-one] | Active | Active
5 | 260 to 262 °C | COCCOc1cc(OC)c2c(=O)[nH]c(-c3ccnc(C)c3)nc2c1 [5-methoxy-7-(2-methoxyethoxy)-2-(2-methylpyridin-4-yl)quinazolin-4(3H)-one] | Active | Active
6 | 178 to 180 °C | COc1cc(OCCOCc2ccccc2)cc2nc(-c3cc(C)nc(C)c3)[nH]c(=O)c12 [7-(2-(Benzyloxy)ethoxy)-2-(2,6-dimethylpyridin-4-yl)-5-methoxyquinazolin-4(3H)-one] | Active | Active
7 | 228.2 to 229.9 °C | COc1cc(OCCOCc2ccccc2)cc2nc(-c3ccncc3)[nH]c(=O)c12 [7-(2-(Benzyloxy)ethoxy)-5-methoxy-2-(pyridin-4-yl)quinazolin-4(3H)-one] | Active | Active
8 | 264 to 265 °C | COc1cc(OCCNC(C)=O)cc(-c2nc3cc(OC)cc(OC)c3c(=O)[nH]2)c1 [N-(2-(3-(5,7-dimethoxy-4-oxo-3,4-dihydroquinazolin-2-yl)-5-methoxyphenoxy)ethyl)acetamide] | Active | Active

The next lines start with the molecule.

Row | Compound | melting point | Inhibition of IL-6 expression (hIL-6 mRNA) | Inhibition of VCAM-1 expression (VCAM-1 mRNA)
9 | COc1cc(OC)c2c(=O)[nH]c(-c3cc(C)c(OCCCCN4CCCC4)c(C)c3)nc2c1 [2-(3,5-Dimethyl-4-(4-(pyrrolidin-1-yl)butoxy)phenyl)-5,7-dimethoxyquinazolin-4(3H)-one] | 180 to 181 °C | Active | Active
10 | COc1cc(OC)c2c(=O)[nH]c(-c3cc(C)cc(OCCO)c3)nc2c1 [2-(3-(2-Hydroxyethoxy)-5-methylphenyl)-5,7-dimethoxyquinazolin-4(3H)-one] | 106.9 to 109.1 °C | Active | Active
11 | COc1cc(OC)c2c(=O)[nH]c(-c3cccc(OCCO)c3)nc2c1 [2-(3-(2-Hydroxyethoxy)phenyl)-5,7-dimethoxyquinazolin-4(3H)-one] | 244.8 to 246 °C | Active | Active
12 | COc1cc(OC)c2c(=O)[nH]c(-c3cc(C)c(OCCn4ccnc4)c(C)c3)nc2c1 [2-(4-(2-(1H-Imidazol-1-yl)ethoxy)-3,5-dimethylphenyl)-5,7-dimethoxyquinazolin-4(3H)-one] | 218 to 219 °C | Active | Active
13 | COc1cc(OC)c2c(=O)[nH]c(-c3cc(C)c(OCCN4CCN(C(C)=O)CC4)c(C)c3)nc2c1 [2-(4-(2-(4-Acetylpiperazin-1-yl)ethoxy)-3,5-dimethylphenyl)-5,7-dimethoxyquinazolin-4(3H)-one] | 213 to 214 °C | Active | Active
14 | COc1cc(OC)c2c(=O)[nH]c(-c3cc(C)c(OCCN4CCCCCC4)c(C)c3)nc2c1 [2-(4-(2-(Azepan-1-yl)ethoxy)-3,5-dimethylphenyl)-5,7-dimethoxyquinazolin-4(3H)-one] | 198 to 199 °C | Active | Active
15 | COc1cc(OC)c2c(=O)[nH]c(-c3cc(C)c(OCCN4C(=O)CN(C(C)C)C4=O)c(C)c3)nc2c1 [3-(2-(4-(5,7-Dimethoxy-4-oxo-3,4-dihydroquinazolin-2-yl)-2,6-dimethylphenoxy)ethyl)-1-isopropylimidazolidine-2,4-dione] | 219 to 221 °C | Active | Active
16 | COc1cc(OC)c2c(=O)[nH]c(-c3cc(C)c(OCCN4C(=O)NC(c5ccccc5)C4=O)c(C)c3)nc2c1 (stereo not drawn) [3-(2-(4-(5,7-Dimethoxy-4-oxo-3,4-dihydroquinazolin-2-yl)-2,6-dimethylphenoxy)ethyl)-5-phenylimidazolidine-2,4-dione] | 219.6 to 221.4 °C | Active | Active
17 | COc1cc(OC)c2c(=O)[nH]c(-c3ccc(CN4C(=O)CNC4=O)cc3)nc2c1 [3-(4-(5,7-Dimethoxy-4-oxo-3,4-dihydroquinazolin-2-yl)benzyl)imidazolidine-2,4-dione] | 317 to 318 °C | Active | Active
